Experimental data: patent US11707474B2, “Methods for treating acute myeloid leukemia and related conditions” (GlycoMimetics, Inc., priority 2018, dated 2023)

Key:
[1] = tested on: KG1 cells; test: Systemic KG1 AML model survival; format: in vivo, NSG female mice; conditions: 5 mg/kg IP days 7, 10, 13, 16, 19 alone
Experimental: The potential relevance of these in vitro observations was assessed in NSG female mice with pre-existing disseminated KG1 cells and treated with a compound of Formula (I) (40 mg/kg, IP, QD for 14 days), 5-azacytidine (5 mg/kg, IP, administered on days 7, 10, 13, 16, and 19 (5 doses total)), or the combination of both compounds. Under the conditions of the assay, the median survival time of mice treated with saline alone or a compound of Formula (I) was 69.5 and 69 days, respectively (FIG. 9). Administration of a compound of Formula (I) with 5-azacytidine increased median survival time beyond that obtained with 5-azacytidine treatment alone (>104 days versus 88 days; P=0.014, FIG. 9).

[2] = tested on: KG1 cells; test: Static adhesion of KG1 cells to E-selectin coated plates; format: cell-based, human; conditions: compared to control treated KG1 cells
From the text: (§1) These findings indicate that hypomethylating agents, including 5-azacytidine, may increase the adhesion of leukemic blasts in the bone marrow and therefore hinder the intended anti-leukemic effect. This could explain a source of chemoresistance, and potential for relapse, in patients treated with hypomethylating agents.

[3] = tested on: KG1; test: Flow cytometry, binding of E-selectin-PE conjugate to KG1 cells; format: cell-based, human; conditions: 100 nM
From the text: as §1

## Nc1ncn([C@@H]2O[C@H](CO)[C@@H](O)[C@H]2O)c(=O)n1 [5-azacytidine, reference compound]
[1]
  median survival time: 88 days
[2]
  increase in static adhesion to E-selectin coated plates: 57%
[3]
  increase in cell binding of E-selectin-PE conjugate: 38%
